Test results as given in US20100267561A1, “HERBICIDAL PYRIDAZINONE DERIVATIVES” (priority 2007, published 2010).

Tests used:
Test in all cases: Test E pre-/postemergence plant response
Type in all cases: in vivo
[1] = test system: Canada horseweed (Conyza canadensis); conditions: Postemergence, scale 0 to 100
How it was run: (§1)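 Seeds were planted and treated preemergence with compound formulated in a non-phytotoxic solvent mixture containing surfactant; postemergence sprays in the same formulation went onto plants 2 to 18 cm tall (1- to 4-leaf stage). After 14 to 21 days in a greenhouse, injury versus untreated controls was rated visually, 0 (no effect) to 100 (complete control).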

[2] = test system: spanishneedles (Bidens bipinnata); conditions: scale 0 to 100
How it was run: as §1

[3] = test system: common ragweed (Ambrosia elation); conditions: scale 0 to 100
How it was run: as §1

CCc1cc(-c2ccc(C(F)(F)F)cc2)nn1-c1c(OC(=O)OC(C)C)cnn(C)c1=O [Compound 12]
0: Plant response rating, Horseweed ([1]; 4 g ai/ha) | Plant response rating, Horseweed ([1]; 8 g ai/ha) | Plant response rating, Horseweed ([1]; 31 g ai/ha) | Plant response rating, Spanishneedles ([2]; 4 g ai/ha, Postemergence) | Plant response rating, Spanishneedles ([2]; 31 g ai/ha, Preemergence) | Plant response rating, Spanishneedles ([2]; Postemergence, 8 g ai/ha) | Plant response rating, Spanishneedles ([2]; Postemergence, 31 g ai/ha) | Plant response rating, Ragweed ([3]; 4 g ai/ha, Postemergence) | Plant response rating, Ragweed ([3]; 31 g ai/ha, Preemergence) | Plant response rating, Ragweed ([3]; Postemergence, 8 g ai/ha) | Plant response rating, Ragweed ([3]; Postemergence, 31 g ai/ha) | Plant response rating, Ragweed ([3]; Preemergence, 4 g ai/ha)
